Measurements taken from article PMC6138237, “Machine intelligence decrypts β-lapachone as an allosteric 5-lipoxygenase inhibitor” (Chemical Science, 2018).
Where two headings read alike, the source gives them in different places.

Legend:
Assay type in all cases: biochemical
IRK = IRK (Homo sapiens, UniProt P06213); assay: ExpresS Diversity Kinase Profile, Cerep (LANCE): IRK
CHK1 = target: T1, CHK1 (Homo sapiens, UniProt O14757); assay: ExpresS Diversity Kinase Profile, Cerep (LANCE): CHK1
T1 sequence (O14757 1-476): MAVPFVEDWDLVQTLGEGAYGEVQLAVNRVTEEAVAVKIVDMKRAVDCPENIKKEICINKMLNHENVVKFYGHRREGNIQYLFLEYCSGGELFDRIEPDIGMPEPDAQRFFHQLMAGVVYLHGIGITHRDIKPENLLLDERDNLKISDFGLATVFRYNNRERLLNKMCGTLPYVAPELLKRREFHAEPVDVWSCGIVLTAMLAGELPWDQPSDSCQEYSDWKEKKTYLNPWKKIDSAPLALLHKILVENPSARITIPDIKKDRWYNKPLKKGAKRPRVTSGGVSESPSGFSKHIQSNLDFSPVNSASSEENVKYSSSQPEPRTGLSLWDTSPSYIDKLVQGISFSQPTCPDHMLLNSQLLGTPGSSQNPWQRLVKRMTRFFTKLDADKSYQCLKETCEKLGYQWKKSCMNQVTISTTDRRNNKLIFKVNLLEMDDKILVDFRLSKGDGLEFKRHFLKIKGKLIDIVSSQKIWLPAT

MARK1 = MARK1 (Homo sapiens, UniProt Q9P0L2); assay: ExpresS Diversity Kinase Profile, Cerep (LANCE): MARK1
MAP4K4 = MAP4K4 (Homo sapiens, UniProt O95819); assay: ExpresS Diversity Kinase Profile, Cerep (LANCE): MAP4K4
TAOK2 = target: T2, TAOK2 (Homo sapiens, UniProt Q9UL54); assay: ExpresS Diversity Kinase Profile, Cerep (LANCE): TAOK2
T2 sequence (Q9UL54 1-1235): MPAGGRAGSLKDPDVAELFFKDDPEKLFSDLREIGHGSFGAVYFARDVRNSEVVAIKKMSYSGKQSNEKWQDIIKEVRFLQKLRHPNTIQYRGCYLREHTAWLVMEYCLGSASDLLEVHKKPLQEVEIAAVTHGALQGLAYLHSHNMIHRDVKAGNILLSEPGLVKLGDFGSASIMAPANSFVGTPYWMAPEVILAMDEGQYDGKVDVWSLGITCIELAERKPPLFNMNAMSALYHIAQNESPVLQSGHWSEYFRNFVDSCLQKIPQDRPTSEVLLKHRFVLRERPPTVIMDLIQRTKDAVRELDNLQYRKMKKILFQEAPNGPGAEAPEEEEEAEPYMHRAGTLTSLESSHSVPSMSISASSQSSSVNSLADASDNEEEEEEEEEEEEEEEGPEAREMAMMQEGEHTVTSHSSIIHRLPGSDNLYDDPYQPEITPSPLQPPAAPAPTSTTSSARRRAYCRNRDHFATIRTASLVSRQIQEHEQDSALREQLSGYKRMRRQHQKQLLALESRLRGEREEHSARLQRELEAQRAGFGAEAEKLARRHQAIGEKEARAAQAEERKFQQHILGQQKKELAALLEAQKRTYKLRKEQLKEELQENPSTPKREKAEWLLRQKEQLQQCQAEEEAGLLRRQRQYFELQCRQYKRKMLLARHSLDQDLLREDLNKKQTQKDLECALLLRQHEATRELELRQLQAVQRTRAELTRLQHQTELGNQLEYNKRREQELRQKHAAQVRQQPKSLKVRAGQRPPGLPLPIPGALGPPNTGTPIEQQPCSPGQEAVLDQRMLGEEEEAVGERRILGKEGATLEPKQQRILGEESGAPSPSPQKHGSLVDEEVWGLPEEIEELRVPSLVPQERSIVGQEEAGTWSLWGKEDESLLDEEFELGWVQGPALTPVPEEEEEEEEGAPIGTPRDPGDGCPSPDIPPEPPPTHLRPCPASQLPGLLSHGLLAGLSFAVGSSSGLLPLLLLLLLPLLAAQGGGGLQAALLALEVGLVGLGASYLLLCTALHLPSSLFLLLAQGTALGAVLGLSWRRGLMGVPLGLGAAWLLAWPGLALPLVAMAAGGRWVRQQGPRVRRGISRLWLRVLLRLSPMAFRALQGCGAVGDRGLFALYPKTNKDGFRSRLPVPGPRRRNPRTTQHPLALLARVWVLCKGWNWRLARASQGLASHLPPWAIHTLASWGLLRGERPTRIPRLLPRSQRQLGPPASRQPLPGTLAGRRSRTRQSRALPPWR

RAF-1 = RAF-1 (Homo sapiens, UniProt P04049); assay: ExpresS Diversity Kinase Profile, Cerep (LANCE): RAF-1; conditions: for inhibition at 150 µM: RAF-1
FGFR3 = FGFR3 (Homo sapiens, UniProt P22607); assay: ExpresS Diversity Kinase Profile, Cerep (LANCE): FGFR3
FGFR2 = FGFR2 (Homo sapiens, UniProt P21802); assay: ExpresS Diversity Kinase Profile, Cerep (LANCE): FGFR2
CDK2 = CDK2 (Homo sapiens, UniProt P24941); assay: ExpresS Diversity Kinase Profile, Cerep (LANCE): CDK2
CHK2 = CHK2 (Homo sapiens, UniProt O96017); assay: ExpresS Diversity Kinase Profile, Cerep (LANCE): CHK2
MAPKAPK2 = MAPKAPK2 (Homo sapiens, UniProt P49137); assay: ExpresS Diversity Kinase Profile, Cerep (LANCE): MAPKAPK2
[1] = Flag: Interference, read-out: % Inhibition of control values, 1st measurement
[2] = Flag: Interference, read-out: % Inhibition of control values, 2nd measurement
[3] = n = 2, Flag: Interference, read-out: % Inhibition of control values, Mean
[4] = n = 2, read-out: % Inhibition of control values, Mean
[5] = read-out: % Inhibition of control values, 1st measurement
[6] = read-out: % Inhibition of control values, 2nd measurement

Chain of RAF-1 (P04049 whole entry): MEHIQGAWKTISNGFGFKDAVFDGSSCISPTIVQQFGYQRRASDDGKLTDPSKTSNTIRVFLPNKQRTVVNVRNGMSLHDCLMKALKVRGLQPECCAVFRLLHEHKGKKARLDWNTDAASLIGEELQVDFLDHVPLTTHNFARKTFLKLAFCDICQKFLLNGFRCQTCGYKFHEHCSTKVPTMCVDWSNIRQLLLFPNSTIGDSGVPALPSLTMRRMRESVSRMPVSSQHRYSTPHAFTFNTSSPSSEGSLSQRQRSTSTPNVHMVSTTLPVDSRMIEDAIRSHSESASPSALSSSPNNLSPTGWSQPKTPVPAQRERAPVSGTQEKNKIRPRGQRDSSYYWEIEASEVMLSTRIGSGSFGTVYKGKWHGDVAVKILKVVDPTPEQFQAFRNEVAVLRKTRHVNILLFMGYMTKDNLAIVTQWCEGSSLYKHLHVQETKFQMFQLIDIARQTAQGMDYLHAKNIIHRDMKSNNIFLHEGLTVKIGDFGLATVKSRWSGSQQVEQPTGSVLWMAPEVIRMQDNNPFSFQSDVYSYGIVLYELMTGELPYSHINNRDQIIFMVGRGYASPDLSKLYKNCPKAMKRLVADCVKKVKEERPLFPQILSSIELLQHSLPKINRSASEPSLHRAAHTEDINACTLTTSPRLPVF
Chain of CHK2 (O96017 whole entry): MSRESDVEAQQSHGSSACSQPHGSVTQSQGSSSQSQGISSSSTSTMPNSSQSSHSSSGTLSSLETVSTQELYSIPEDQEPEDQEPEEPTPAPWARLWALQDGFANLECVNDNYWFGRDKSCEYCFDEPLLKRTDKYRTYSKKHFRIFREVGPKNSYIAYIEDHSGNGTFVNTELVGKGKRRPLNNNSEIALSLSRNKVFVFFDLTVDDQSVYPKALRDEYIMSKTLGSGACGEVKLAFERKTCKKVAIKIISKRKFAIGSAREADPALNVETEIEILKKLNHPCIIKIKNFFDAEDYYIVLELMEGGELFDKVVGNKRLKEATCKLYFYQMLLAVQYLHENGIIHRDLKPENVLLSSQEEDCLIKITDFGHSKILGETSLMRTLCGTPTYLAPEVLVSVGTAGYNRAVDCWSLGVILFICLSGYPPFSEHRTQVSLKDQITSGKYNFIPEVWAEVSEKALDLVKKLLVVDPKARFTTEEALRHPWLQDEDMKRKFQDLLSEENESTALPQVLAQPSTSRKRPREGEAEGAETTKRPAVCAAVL
Chain of FGFR3 (P22607 23-806): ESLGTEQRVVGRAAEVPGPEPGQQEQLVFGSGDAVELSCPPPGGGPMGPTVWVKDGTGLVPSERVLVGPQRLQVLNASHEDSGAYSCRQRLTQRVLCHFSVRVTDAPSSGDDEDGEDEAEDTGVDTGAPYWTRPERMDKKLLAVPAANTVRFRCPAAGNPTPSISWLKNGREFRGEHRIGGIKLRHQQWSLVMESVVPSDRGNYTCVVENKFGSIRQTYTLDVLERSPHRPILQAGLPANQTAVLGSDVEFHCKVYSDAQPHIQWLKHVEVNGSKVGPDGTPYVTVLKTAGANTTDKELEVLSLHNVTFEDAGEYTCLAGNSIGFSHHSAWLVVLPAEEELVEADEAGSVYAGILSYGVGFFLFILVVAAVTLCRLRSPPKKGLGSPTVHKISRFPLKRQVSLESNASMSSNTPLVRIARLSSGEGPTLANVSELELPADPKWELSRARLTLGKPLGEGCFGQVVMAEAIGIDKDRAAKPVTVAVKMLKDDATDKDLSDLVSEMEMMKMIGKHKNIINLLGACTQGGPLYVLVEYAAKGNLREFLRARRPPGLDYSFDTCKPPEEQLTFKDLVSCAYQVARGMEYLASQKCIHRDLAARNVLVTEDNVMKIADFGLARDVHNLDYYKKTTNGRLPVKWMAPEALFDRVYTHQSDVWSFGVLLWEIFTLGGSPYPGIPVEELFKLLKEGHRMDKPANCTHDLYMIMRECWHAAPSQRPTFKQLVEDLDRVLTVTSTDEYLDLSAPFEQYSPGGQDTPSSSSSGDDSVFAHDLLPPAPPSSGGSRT
Chain of FGFR2 (P21802 22-821): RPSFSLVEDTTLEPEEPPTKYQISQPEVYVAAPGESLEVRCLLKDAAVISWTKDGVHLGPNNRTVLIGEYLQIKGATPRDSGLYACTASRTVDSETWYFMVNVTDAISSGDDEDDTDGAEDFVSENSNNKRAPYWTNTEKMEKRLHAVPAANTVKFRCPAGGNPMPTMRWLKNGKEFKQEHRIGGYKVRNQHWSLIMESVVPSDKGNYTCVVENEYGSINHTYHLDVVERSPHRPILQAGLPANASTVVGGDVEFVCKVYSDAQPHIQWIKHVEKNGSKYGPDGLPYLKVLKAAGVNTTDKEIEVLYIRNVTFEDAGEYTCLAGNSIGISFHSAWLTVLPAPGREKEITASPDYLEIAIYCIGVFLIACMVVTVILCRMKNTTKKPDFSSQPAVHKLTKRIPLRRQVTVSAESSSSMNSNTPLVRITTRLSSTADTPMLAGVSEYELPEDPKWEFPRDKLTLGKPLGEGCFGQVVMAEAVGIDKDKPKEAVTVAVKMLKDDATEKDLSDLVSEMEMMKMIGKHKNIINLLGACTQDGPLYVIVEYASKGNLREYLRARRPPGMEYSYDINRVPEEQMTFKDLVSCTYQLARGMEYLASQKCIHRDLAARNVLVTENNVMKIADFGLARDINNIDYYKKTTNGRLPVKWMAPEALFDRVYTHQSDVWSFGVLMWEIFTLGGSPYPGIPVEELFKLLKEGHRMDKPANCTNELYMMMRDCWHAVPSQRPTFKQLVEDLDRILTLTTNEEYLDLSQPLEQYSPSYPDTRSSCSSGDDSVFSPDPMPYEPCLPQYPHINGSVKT
Chain of MAP4K4 (O95819 whole entry): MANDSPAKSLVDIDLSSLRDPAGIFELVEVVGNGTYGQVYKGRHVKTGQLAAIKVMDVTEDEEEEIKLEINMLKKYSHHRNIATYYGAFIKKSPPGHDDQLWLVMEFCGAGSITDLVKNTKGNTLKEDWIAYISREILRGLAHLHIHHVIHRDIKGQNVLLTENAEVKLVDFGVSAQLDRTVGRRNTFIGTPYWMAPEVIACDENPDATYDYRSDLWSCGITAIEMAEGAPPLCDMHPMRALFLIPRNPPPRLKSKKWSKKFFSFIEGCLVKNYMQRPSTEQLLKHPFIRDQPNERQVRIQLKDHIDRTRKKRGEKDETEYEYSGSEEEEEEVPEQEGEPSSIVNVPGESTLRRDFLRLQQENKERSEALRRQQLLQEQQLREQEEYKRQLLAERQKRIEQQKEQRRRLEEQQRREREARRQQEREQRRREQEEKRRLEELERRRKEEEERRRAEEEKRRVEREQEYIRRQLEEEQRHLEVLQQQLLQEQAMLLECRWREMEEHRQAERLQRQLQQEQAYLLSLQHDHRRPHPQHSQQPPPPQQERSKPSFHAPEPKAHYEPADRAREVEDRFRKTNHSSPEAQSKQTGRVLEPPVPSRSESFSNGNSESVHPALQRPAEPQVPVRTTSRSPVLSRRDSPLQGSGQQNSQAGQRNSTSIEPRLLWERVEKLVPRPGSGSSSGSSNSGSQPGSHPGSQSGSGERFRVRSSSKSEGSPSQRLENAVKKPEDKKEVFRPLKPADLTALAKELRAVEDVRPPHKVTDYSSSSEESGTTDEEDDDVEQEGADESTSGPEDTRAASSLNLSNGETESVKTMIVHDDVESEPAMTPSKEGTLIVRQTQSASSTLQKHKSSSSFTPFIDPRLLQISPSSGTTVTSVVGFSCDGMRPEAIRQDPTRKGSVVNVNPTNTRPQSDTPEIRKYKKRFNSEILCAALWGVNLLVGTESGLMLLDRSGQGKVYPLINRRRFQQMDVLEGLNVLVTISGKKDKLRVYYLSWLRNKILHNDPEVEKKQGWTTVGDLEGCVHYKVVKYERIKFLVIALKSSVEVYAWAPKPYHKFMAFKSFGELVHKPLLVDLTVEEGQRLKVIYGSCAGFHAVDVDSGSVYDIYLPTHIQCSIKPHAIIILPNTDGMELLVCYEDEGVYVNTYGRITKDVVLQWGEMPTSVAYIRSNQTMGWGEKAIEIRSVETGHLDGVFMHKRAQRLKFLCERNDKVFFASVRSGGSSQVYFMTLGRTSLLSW
Chain of MARK1 (Q9P0L2 whole entry): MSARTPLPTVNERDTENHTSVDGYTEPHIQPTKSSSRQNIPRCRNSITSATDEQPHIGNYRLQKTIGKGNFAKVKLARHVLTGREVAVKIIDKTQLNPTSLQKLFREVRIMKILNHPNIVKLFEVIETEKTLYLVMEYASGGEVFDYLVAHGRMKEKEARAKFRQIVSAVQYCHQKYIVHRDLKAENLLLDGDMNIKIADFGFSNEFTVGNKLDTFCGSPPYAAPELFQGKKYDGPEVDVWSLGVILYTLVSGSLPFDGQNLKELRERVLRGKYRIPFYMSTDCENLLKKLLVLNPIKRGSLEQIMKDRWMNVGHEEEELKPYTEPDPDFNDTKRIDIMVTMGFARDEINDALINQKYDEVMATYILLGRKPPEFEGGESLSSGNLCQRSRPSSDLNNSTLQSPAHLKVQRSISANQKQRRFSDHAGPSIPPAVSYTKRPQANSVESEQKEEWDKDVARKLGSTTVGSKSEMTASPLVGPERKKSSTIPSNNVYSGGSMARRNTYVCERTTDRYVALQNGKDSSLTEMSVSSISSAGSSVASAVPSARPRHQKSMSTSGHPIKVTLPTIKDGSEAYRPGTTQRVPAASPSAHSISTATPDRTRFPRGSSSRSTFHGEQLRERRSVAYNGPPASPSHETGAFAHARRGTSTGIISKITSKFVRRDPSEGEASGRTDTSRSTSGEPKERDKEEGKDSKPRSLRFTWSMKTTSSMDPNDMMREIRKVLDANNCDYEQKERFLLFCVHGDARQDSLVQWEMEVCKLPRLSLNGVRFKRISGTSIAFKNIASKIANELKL

Compound: CN[C@@H]1C[C@H]2O[C@@](C)([C@@H]1OC)n1c3ccccc3c3c4c(c5c6ccccc6n2c5c31)C(=O)NC4 [Staurosporine, reference compound]
- nHill (IRK; control): 1.0
- nHill (CHK1; control): 1.5
- nHill (MARK1; control): 2.5
- nHill (MAP4K4; control): 2.7
- nHill (TAOK2; control): 1.6
- nHill (RAF-1; RAF1, control): 2.4

Compound: CC1(C)CCC2=C(O1)c1ccccc1C(=O)C2=O [β-Lapachone]
- inhibition at 150 µM (FGFR3; [1]): 76.5%
- inhibition at 150 µM (FGFR3; [2]): 85.1%
- inhibition at 150 µM (FGFR3; [3]): 80.8%
- inhibition at 150 µM (FGFR2; [1]): 44.8%
- inhibition at 150 µM (FGFR2; [2]): 55.2%
- inhibition at 150 µM (FGFR2; [3]): 50%
- inhibition at 150 µM (IRK; [4]): 50.8%
- inhibition at 150 µM (IRK; [5]): 50.9%
- inhibition at 150 µM (IRK; [6]): 50.6%
- inhibition at 150 µM (CDK2; [4]): 78.2%
- inhibition at 150 µM (CDK2; [5]): 79.4%
- inhibition at 150 µM (CDK2; [6]): 77.1%
- inhibition at 150 µM (CHK1; [1]): 9.4%
- inhibition at 150 µM (CHK1; [2]): 19.7%
- inhibition at 150 µM (CHK1; [3]): 14.5%
- inhibition at 150 µM (CHK2; [1]): 46.6%
- inhibition at 150 µM (CHK2; [2]): 59.5%
- inhibition at 150 µM (CHK2; [3]): 53.1%
- inhibition at 150 µM (MAPKAPK2; [1]): -14.5%
- inhibition at 150 µM (MAPKAPK2; [2]): -2.7%
- inhibition at 150 µM (MAPKAPK2; [3]): -8.6%
- inhibition at 150 µM (MARK1; [4]): -57.4%
- inhibition at 150 µM (MARK1; [5]): -70.1%
- inhibition at 150 µM (MARK1; [6]): -44.7%
- inhibition at 150 µM (MAP4K4; [4]): 48.6%
- inhibition at 150 µM (MAP4K4; [5]): 47.7%
- inhibition at 150 µM (MAP4K4; [6]): 49.5%
- inhibition at 150 µM (TAOK2; [1]): 32.9%
- inhibition at 150 µM (TAOK2; [2]): 33.1%
- inhibition at 150 µM (TAOK2; [3]): 33%
- inhibition at 150 µM (RAF-1; [4]): 57.3%
- inhibition at 150 µM (RAF-1; [5]): 55.4%
- inhibition at 150 µM (RAF-1; [6]): 59.3%
